From US9210928B2, “Plant development control composition” (Syngenta Crop Protection, LLC, priority 2008, dated 2015)

Test system: excised Arabidopsis nodes
Assay: Axillary bud outgrowth assay in Arabidopsis stem sections
Format: in vivo
Details: 100 μM inhibitor, 1 μM NAA; Col-0; FIG. 5
Experimental: Axillary bud outgrowth assay in Arabidopsis stein sections—The assays were performed essentially as described (40) with the following modifications. Small Petri dishes (50 mm diameter, 20 mm depth) were filled with 10 ml of ATS (39) supplemented with 1% agar and 1% sucrose. Inhibitors and α-naphthalene acetic acid (NAA) were added to the agar before pouring to give 100 μM and 1 μM, respectively. Thus, when the central strip was cut out of the agar, both the apical and basal media contained both NAA and inhibitor. Any nodes in which the apical end had curled out of the media or which bud length was less than 2 mm at the end of the experiment were discounted. Measurement of the shoot length was performed every 24 hours. For each assay a logistic curve was fitted using Genstat (10th edition, VSN international) with the fitcurve directive and the lag phase was calculated by extrapolating the linear part of the curve and the initial plateau (see supplementary methods). The x value of where these two lines intersected represented the lag phase.
A logistic curve, y=A+C/(1+e^−B(t−m)), was fitted to the data for each shoot using GenStat (10th edition). The lag phase was then calculated using the equation m−(2/B) which effectively gave the t value (time) of the intercept of the two extrapolated lines from the linear part of the curve and the initial plateau.
Stimulation of shoot branching in Arabidopsis stem sections by application of inhibitor—Auxin inhibits the outgrowth of axillary buds in wild-type Arabidopsis plants. In the AtCCD7 and AtCCD8 null mutants (max3 and max4, respectively) the response to auxin is reduced, presumably due to a block in formation of an apocarotenoid hormone (recently shown (17,18) to be strigolactone or a related compound) that suppresses branching (19), and axillary buds extend earlier, leading to formation of side branches. An in vitro assay was previously developed in which the growth of axillary buds from isolated sections of Arabidopsis stem was used to assess max mutants (40). […]

Structure (SMILES)	effect on timing of bud outgrowth (in words)
COc1ccc(C(=O)N(O)Cc2ccc(F)cc2)cc1 [Compound F2, N-(4-fluorobenzyl)-4-methoxybenzoyl hydroxamic acid]	relatively small activity
COc1ccc(C(=O)N(O)Cc2ccccc2)cc1 [Compound F1, N-benzyl-4-methoxybenzoyl hydroxamic acid]	relatively small activity
